# Laboratory results from patent US10287267B2, “Isoquinolin-3-yl carboxamides and preparation and use thereof” (Samumed, LLC, priority 2016, dated 2019).
# Assays:
# [1] = test system: SW480 colon carcinoma cells; experiment: Cell viability assay (CellTiter-Glo); format: cell-based, human; conditions: Homo sapiens; for EC50: 96 h, SW480 cells, CellTiter-Glo, four days incubation; for inhibition at 10 µM: SW480, read-out: percent inhibition at 10 μM
# [2] = test system: α-smooth muscle actin (αSMA) positive LL29 cells; experiment: Inhibition of fibrotic process: αSMA in TGF-β1 treated primary human fibroblasts from IPF patients; format: cell-based; conditions: Homo sapiens, Fibroblast; for EC50: 96 h, Table 8, LL29 fibroblasts from IPF patients, TGF-β1 20 ng/mL, 4 days, dose-response 10 μM to 0.94 nM; for inhibition at 10 µM: read-out: percent value in parentheses beside EC50 >10 μM;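 on all read-outs here: controls were TGF-β1 stimulated wells with DMSO vehicle (positive) and cells given DMSO alone (negative), cultured in F12 medium with 1% fetal bovine serum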
# [3] = test system: Tau phosphorylation at Ser396 (pSer396); experiment: Tau phosphorylation assay (pSer396 ELISA / western blot) in SH-SY5Y cells; format: cell-based, human; conditions: Homo sapiens; SH-SY5Y cells, overnight (16-18 h) exposure; read-out: pSer396 Tau EC50;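 further: EC50 for reduction of Tau pSer396 in lysed cells, measured by colorimetric ELISA or chemiluminescent western blot, both using the same pSer396 antibody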
# [4] = test system: IL-6; experiment: IL-6 inhibition in LPS-stimulated human peripheral blood mononuclear cells (HTRF); format: cell-based; conditions: Homo sapiens, PBMC; for EC50: Table 9, huPBMCs, LPS 50 ng/mL, 22 hours, dose-response starting from 10 μM; for inhibition at 10 µM: read-out: percent value in parentheses beside EC50 >10 μM;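 on all read-outs here: IL-6 detected by HTRF with an XL665- and Cryptate-labelled anti-IL-6 antibody pair, samples run in duplicate, EC50 obtained from a four-parameter Levenberg-Marquardt curve fit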
# Procedure: After 22 hour incubation, a mixture of anti-IL6 XL665 and anti-IL-6 Cryptate diluted in reconstitution buffer (Catalog #62IL6PEC, Cisbio Inc., Bedford, Mass.) was added to each well. […] All samples were processed in duplicate. […] EC50 was determined using software generated by Dotmatics Limited (Windhill Bishops Stortford Herts, UK) using the Levenberg-Marquardt 4 parameter fitting procedure with finite different gradients.
# [5] = molecular target: recombinant DYRK1A kinase (Homo sapiens (Human), UniProt Q13627); experiment: DYRK1A kinase assay (Ser/Thr 18 peptide Z-lyte FRET); format: biochemical; conditions: 30 μM ATP, 1 h room temperature;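 further: Read-out is the coumarin to fluorescein emission ratio, referenced to unphosphorylated (0%) and phosphorylated (100%) Ser/Thr 18 peptide controls, values from dose-response curves by non-linear regression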
# [6] = test system: Wnt pathway (Sp5-Luc reporter, TCF/LEF binding sites) in SW480 colon carcinoma cells; experiment: Screening assay for Wnt activity: Sp5-Luc reporter gene assay; format: cell-based, human; conditions: Homo sapiens; for EC50: Sp5-Luc reporter, SW480 cells, 36 to 48 hours; for inhibition at 10 µM: SW480, read-out: percent inhibition at 10 μM;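 on all read-outs here: firefly luciferase luminescence read in stably transduced SW480 cells carrying the Sp5 promoter reporter with eight TCF/LEF sites, compounds given in 0.1% DMSO final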
# Procedure: The screening assay for Wnt activity is described as follows.
# Following incubation, 15 μl of BriteLite Plus luminescence reagent (Perkin Elmer) was added to each well of the 384-well assay plates. The plates were placed on an orbital shaker for 2 min and then luminescence was quantified using the Envision (Perkin Elmer) plate reader.
# [7] = molecular target: recombinant GSK3β kinase (Homo sapiens (Human), UniProt P49841); experiment: GSK3β kinase assay (Ser/Thr 09 peptide Z-lyte FRET); format: biochemical; conditions: 46 μM ATP, 1 h room temperature;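 further: kinase activity read as coumarin to fluorescein emission ratio, 11-point threefold dilutions from 10 µM to 0.0003 µM in duplicate, unphosphorylated and phosphorylated peptide as 0% and 100% controls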
# Sequence of recombinant GSK3β kinase (P49841 whole entry): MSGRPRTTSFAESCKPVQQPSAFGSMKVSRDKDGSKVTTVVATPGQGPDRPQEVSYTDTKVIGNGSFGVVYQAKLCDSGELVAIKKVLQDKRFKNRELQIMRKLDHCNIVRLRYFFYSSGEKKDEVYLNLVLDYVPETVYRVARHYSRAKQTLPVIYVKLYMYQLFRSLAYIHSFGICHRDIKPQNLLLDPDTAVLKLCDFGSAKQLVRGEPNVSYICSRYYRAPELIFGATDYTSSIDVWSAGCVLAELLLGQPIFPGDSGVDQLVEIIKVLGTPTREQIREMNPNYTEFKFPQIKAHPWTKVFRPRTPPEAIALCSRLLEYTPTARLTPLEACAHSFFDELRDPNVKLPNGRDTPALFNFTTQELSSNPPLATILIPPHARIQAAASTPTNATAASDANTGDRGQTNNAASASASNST
Compound,EC50 [1] [µM],EC50 [2] [µM],EC50 [3] [µM],EC50 [4] [µM],EC50 [5] [µM],EC50 [6] [µM],EC50 [7] [µM],inhibition at 10 µM [1] [%],inhibition at 10 µM [2] [%],inhibition at 10 µM [4] [%],inhibition at 10 µM [6] [%]
"Cn1cc(-c2ccc3cnc(NC(=O)C4CCN(Cc5cnccn5)CC4)cc3c2)cn1 [Compound 1004, N-(6-(1-Methyl-1H-pyrazol-4-yl)isoquinolin-3-yl)-1-(pyrazin-2-ylmethyl)piperidine-4-carboxamide]",0.678,5.04,0.667,1.18,0.002,0.618,0.037,,,,
"Cc1nc(CN2CCC(C(=O)Nc3cc4cc(-c5cnn(C)c5)ccc4cn3)CC2)no1 [Compound 1005, 1-((5-Methyl-1,2,4-oxadiazol-3-yl)methyl)-N-(6-(1-methyl-1H-pyrazol-4-yl)isoquinolin-3-yl)piperidine-4-carboxamide]",1.13,0.072,0.898,2.89,0.0015,1.4,0.032,,,,
"CC(C)OCC(=O)Nc1cc2cc(-c3cncn3C)ccc2cn1 [Compound 1008, 2-Isopropoxy-N-(6-(1-methyl-1H-imidazol-5-yl)isoquinolin-3-yl)acetamide]",> 10,0.318,0.643,7.59,0.0075,3.35,0.091,37.2,,,
"CC(C)OCCC(=O)Nc1cc2cc(-c3cncn3C)ccc2cn1 [Compound 1009, 3-Isopropoxy-N-(6-(1-methyl-1H-imidazol-5-yl)isoquinolin-3-yl) propanamide]",2.35,> 10,0.068,1.84,0.0062,1.11,0.015,,22.4,,
"Cn1cc(-c2ccc3cnc(NC(=O)C4CCN(CC(=O)OC(C)(C)C)CC4)cc3c2)cn1 [Compound 1010, tert-Butyl 2-(4-((6-(1-methyl-1H-pyrazol-4-yl)isoquinolin-3-yl)carbamoyl)piperidin-1-yl)acetate]",3.97,0.103,0.622,1.17,0.0026,2.02,0.053,,,,
"Cn1cc(-c2ccc3cnc(NC(=O)C4CCN(CC(=O)O)CC4)cc3c2)cn1 [Compound 1011, 2-(4-((6-(1-Methyl-1H-pyrazol-4-yl)isoquinolin-3-yl)carbamoyl)piperidin-1-yl)acetic acid]",> 10,> 10,> 10,> 10,0.0026,> 10,0.03,25,15.9,15.3,25
"CN1CCCN(CC(=O)Nc2cc3cc(-c4cnn(C)c4)ccc3cn2)CC1 [Compound 1012, 2-(4-Methyl-1,4-diazepan-1-yl)-N-(6-(1-methyl-1H-pyrazol-4-yl)isoquinolin-3-yl)acetamide]",3.2,> 10,0.555,3.12,0.013,2.72,0.155,,10.2,,
"Cn1cc(-c2cc3cc(NC(=O)C4CCNCC4)ncc3cc2Cl)cn1 [Compound 1013, N-(7-Chloro-6-(1-methyl-1H-pyrazol-4-yl)isoquinolin-3-yl)piperidine-4-carboxamide]",5.5,2.44,4.2,6.82,0.0171,> 10,1.43,,,,42.9
"[2H]C([2H])([2H])n1cc(-c2ccc3cnc(NC(=O)CN4CCN(C)CC4)cc3c2)cn1 [Compound 1014, N-(6-(1-(Methyl-d3)-1H-pyrazol-4-yl)isoquinolin-3-yl)-2-(4-methylpiperazin-1-yl)acetamide]",5.42,0.695,0.767,3.2,0.0094,2.36,0.096,,,,
"[2H]C([2H])([2H])n1cc(-c2cc3cc(NC(=O)CN4CCCCC4)ncc3cc2F)cn1 [Compound 1015, N-(7-Fluoro-6-(1-(methyl-d3)-1H-pyrazol-4-yl)isoquinolin-3-yl)-2-(piperidin-1-yl)acetamide]",6.42,> 10,0.523,3.12,0.0058,3.73,0.101,,9.7,,
"[2H]C([2H])([2H])n1cc(-c2cc(F)c3cnc(NC(=O)CN4CCCCC4)cc3c2)cn1 [Compound 1016, N-(8-Fluoro-6-(1-(methyl-d3)-1H-pyrazol-4-yl)isoquinolin-3-yl)-2-(piperidin-1-yl)acetamide]",6.14,2.13,0.631,> 10,0.0291,4.06,0.087,,,5.4,
"Cc1ncc(-c2ccc3cnc(NC(=O)[C@H]4CC[C@H](CN5CC(F)C5)CC4)cc3c2)o1 [Compound 1018, trans-4-((3-Fluoroazetidin-1-yl)methyl)-N-(6-(2-methyloxazol-5-yl)isoquinolin-3-yl)cyclohexane-1-carboxamide]",0.498,0.088,0.28,0.441,0.0025,0.608,0.054,,,,
"Cc1ncc(-c2ccc3cnc(NC(=O)CN4CCN(C)CC4)cc3c2)o1 [Compound 1019, N-(6-(2-Methyloxazol-5-yl)isoquinolin-3-yl)-2-(4-methylpiperazin-1-yl) acetamide]",9.38,6.53,1.5,8.97,0.0289,3.8,0.158,,,,
"CC(C)CN1CCC(F)(C(=O)Nc2cc3cc(-c4cnc5n4CCNC5)ccc3cn2)CC1 [Compound 1021, 4-Fluoro-1-isobutyl-N-(6-(5,6,7,8-tetrahydroimidazo[1,2-a]pyrazin-3-yl)isoquinolin-3-yl)piperidine-4-carboxamide]",> 10,4.49,5.7,> 10,0.0422,> 10,1.58,11.6,,5.1,16.5
"O=C(Nc1cc2cc(-c3cnn4c3CN(CCF)CC4)ccc2cn1)C1CCNCC1 [Compound 1022, N-(6-(5-(2-Fluoroethyl)-4,5,6,7-tetrahydropyrazolo[1,5-a]pyrazin-3-yl)isoquinolin-3-yl)piperidine-4-carboxamide]",3.34,0.222,9.6,3.29,0.0042,1.37,0.124,,,,
"CC(C)CN1CCC(F)(C(=O)Nc2cc3cc(-c4cnn5c4CN(CCF)CC5)ccc3cn2)CC1 [Compound 1023, 4-Fluoro-N-(6-(5-(2-fluoroethyl)-4,5,6,7-tetrahydropyrazolo[1,5-a]pyrazin-3-yl)isoquinolin-3-yl)-1-isobutylpiperidine-4-carboxamide]",> 10,4.67,1.8,> 10,0.0087,> 10,0.838,39.9,,20.7,38.2
"CN1CCN(CC(=O)Nc2cc3cc(-c4cnn5c4CN(CCF)CC5)ccc3cn2)CC1 [Compound 1024, N-(6-(5-(2-Fluoroethyl)-4,5,6,7-tetrahydropyrazolo[1,5-a]pyrazin-3-yl)isoquinolin-3-yl)-2-(4-methylpiperazin-1-yl)acetamide]",6.77,0.549,1.2,> 10,0.017,3.51,0.15,,,33.1,
"Cc1nnc(-c2ccc3cnc(NC(=O)CN4CC5CCC(C4)O5)cc3c2)s1 [Compound 1029, 2-(8-Oxa-3-azabicyclo[3.2.1]octan-3-yl)-N-(6-(5-methyl-1,3,4-thiadiazol-2-yl)isoquinolin-3-yl)acetamide]",> 10,> 10,0.239,> 10,0.0257,3.34,0.018,34.6,31.8,7.3,
"C[C@@H]1CCCN1CC(=O)Nc1cc2cc(-c3cnc4n3CCNC4)ccc2cn1 [Compound 1030, (R)-2-(2-Methylpyrrolidin-1-yl)-N-(6-(5,6,7,8-tetrahydroimidazo[1,2-a]pyrazin-3-yl)isoquinolin-3-yl)acetamide]",> 10,2.81,1.2,> 10,0.194,> 10,0.39,19.3,,7.7,44.8
